What was measured:
Test in all cases: Extent of growth, growth curves in BHI
Assay type in all cases: cell-based
Details in all cases: control = 1
[1] = tested on: Actinomyces naeslundii
Method: (§1) The extent of growth of the tested bacteria in response to selected compounds (Met-Pro, Phe-Glu) was investigated by setting up growth curves in a nutritionally rich medium (brain heart infusion broth (BHI), Oxoid), over 48 hours. Late exponential growth phase liquid cultures were prepared by transferring the respective bacterium from blood agar plates to BHI and overnight incubation at 37° C. in an anaerobic atmosphere for A. viscosus, V. parvula, F. nucleatum, P. gingivalis, P. intermedia, T. forsythia, A. naeslundii, and C. sputigena, and in a 5% CO2 environment for S. salivarius, S. sanguinis, S. mitis, A. actinomycetemcomitans, S. mutans, S. sobrinus and S. gordonii. Overnight cultures were transferred to BHI and adjusted to a concentration of 1×10^7 CFU/ml (colony forming units per ml) by measuring the optical density at 600 nm (OD600) (BioRad SmartSpec 3000). For each strain, 200 μl of the bacterial suspension was added to a 96-well plate containing 20 μl of the respective di-peptides. Final concentrations of the di-peptides were set to 5, 10, 20 and 25 μmol/ml. […] Plates were incubated as previously described.
(§2) For each combination of bacterium/dipeptide, and for each of their respective controls (i.e. the particular bacterium in the nutritionally rich medium with no dipeptide), the optical density was measured at 630 nm (OD630) at 0 h, 24 h and 48 h (Thermo Scientific Multiskan Ascent). Additionally, the OD630 for combinations of bacterium/dipeptide grown in a 5% CO2 environment were also measured every hour between 0 h and 9 h.
(§3) The experiment was carried out on three different days (thus providing 3 biological replicas) and on each day the experiment was carried out in quadruple (thus providing 4 technical replicas) for each combination of bacterium with dipeptide and for each control. For each day and for each combination, the average (mean) of the values obtained (as detailed above) for the four technical replicas was calculated to provide a single value for each combination on each day. The values shown in Tables 5 to 6, below, are the average (mean) of the three single values obtained for each combination of bacterium with dipeptide.

[2] = tested on: Actinomyces viscosus
Method: as §1, §2, §3

[3] = tested on: Aggregatibacter actinomycetemcomitans
Method: as §1, §2, §3

[4] = tested on: Capnocytophaga sputigena
Method: as §1, §2, §3

[5] = tested on: Fusobacterium nucleatum
Method: as §1, §2, §3

[6] = tested on: Porphyromonas gingivalis
Method: as §1, §2, §3

[7] = tested on: Prevotella intermedia
Method: as §1, §2, §3

[8] = tested on: Streptococcus gordonii
Method: as §1, §2, §3

[9] = tested on: Streptococcus mitis
Method: as §1, §2, §3

[10] = tested on: Streptococcus mutans
Method: as §1, §2, §3

[11] = tested on: Streptococcus salivarius
Method: as §1, §2, §3

[12] = tested on: Streptococcus sanguinis
Method: as §1, §2, §3

[13] = tested on: Streptococcus sobrinus
Method: as §1, §2, §3

[14] = tested on: Tannerella forsythia
Method: as §1, §2, §3

[15] = tested on: Veillonella parvula
Method: as §1, §2, §3

Q: How did the “extent of growth: maximal OD630 over 48 hr divided by maximal OD of control” value ([1]; 5 μmol/ml) turn out when Met-Pro was run?
A: 0.8420

Q: And the “extent of growth: maximal OD630 over 48 hr divided by maximal OD of control” value ([1]; 10 μmol/ml)?
A: 0.8131

Q: And the “extent of growth: maximal OD630 over 48 hr divided by maximal OD of control” value ([1]; 20 μmol/ml)?
A: 0.5466

Q: What about the “extent of growth: maximal OD630 over 48 hr divided by maximal OD of control” value ([1]; 25 μmol/ml) of the same substance?
A: 0.3360

Q: And the “extent of growth: maximal OD630 over 48 hr divided by maximal OD of control” value ([2]; 5 μmol/ml)?
A: 0.4873

Q: And the “extent of growth: maximal OD630 over 48 hr divided by maximal OD of control” value ([2]; 10 μmol/ml)?
A: 0.4102

Q: And the “extent of growth: maximal OD630 over 48 hr divided by maximal OD of control” value ([2]; 20 μmol/ml)?
A: 0.3154

Q: And the “extent of growth: maximal OD630 over 48 hr divided by maximal OD of control” value ([2]; 25 μmol/ml)?
A: 0.2498

Q: What about the “extent of growth: maximal OD630 over 48 hr divided by maximal OD of control” value ([3]; 5 μmol/ml) of the same substance?
A: 0.7454

Q: And the “extent of growth: maximal OD630 over 48 hr divided by maximal OD of control” value ([3]; 10 μmol/ml)?
A: 0.6321

Q: And the “extent of growth: maximal OD630 over 48 hr divided by maximal OD of control” value ([3]; 20 μmol/ml)?
A: 0.3282

Q: And the “extent of growth: maximal OD630 over 48 hr divided by maximal OD of control” value ([3]; 25 μmol/ml)?
A: 0.2297

Q: And the “extent of growth: maximal OD630 over 48 hr divided by maximal OD of control” value ([4]; 5 μmol/ml)?
A: 0.9618

Q: What about the “extent of growth: maximal OD630 over 48 hr divided by maximal OD of control” value ([4]; 10 μmol/ml) of the same substance?
A: 3.5579

Q: And the “extent of growth: maximal OD630 over 48 hr divided by maximal OD of control” value ([4]; 20 μmol/ml)?
A: 2.9796

Q: And the “extent of growth: maximal OD630 over 48 hr divided by maximal OD of control” value ([4]; 25 μmol/ml)?
A: 0.9701

Q: What about the “extent of growth: maximal OD630 over 48 hr divided by maximal OD of control” value ([5]; 5 μmol/ml) of the same substance?
A: 0.8422

Q: And the “extent of growth: maximal OD630 over 48 hr divided by maximal OD of control” value ([5]; 10 μmol/ml)?
A: 0.8667

Q: What about the “extent of growth: maximal OD630 over 48 hr divided by maximal OD of control” value ([5]; 20 μmol/ml) of the same substance?
A: 0.7782

Q: What about the “extent of growth: maximal OD630 over 48 hr divided by maximal OD of control” value ([5]; 25 μmol/ml) of the same substance?
A: 0.7273

Q: And the “extent of growth: maximal OD630 over 48 hr divided by maximal OD of control” value ([6]; 5 μmol/ml)?
A: 0.8702

Q: What about the “extent of growth: maximal OD630 over 48 hr divided by maximal OD of control” value ([6]; 10 μmol/ml) of the same substance?
A: 0.8266

Q: And the “extent of growth: maximal OD630 over 48 hr divided by maximal OD of control” value ([6]; 20 μmol/ml)?
A: 0.7021

Q: What about the “extent of growth: maximal OD630 over 48 hr divided by maximal OD of control” value ([6]; 25 μmol/ml) of the same substance?
A: 0.4276

Q: And the “extent of growth: maximal OD630 over 48 hr divided by maximal OD of control” value ([7]; 5 μmol/ml)?
A: 0.9177

Q: And the “extent of growth: maximal OD630 over 48 hr divided by maximal OD of control” value ([7]; 10 μmol/ml)?
A: 0.9742

Q: And the “extent of growth: maximal OD630 over 48 hr divided by maximal OD of control” value ([7]; 20 μmol/ml)?
A: 0.3193

Q: What about the “extent of growth: maximal OD630 over 48 hr divided by maximal OD of control” value ([7]; 25 μmol/ml) of the same substance?
A: 0.2336

Q: What about the “extent of growth: maximal OD630 over 48 hr divided by maximal OD of control” value ([8]; 5 μmol/ml) of the same substance?
A: 0.9757

Q: And the “extent of growth: maximal OD630 over 48 hr divided by maximal OD of control” value ([8]; 10 μmol/ml)?
A: 0.9528

Q: What about the “extent of growth: maximal OD630 over 48 hr divided by maximal OD of control” value ([8]; 20 μmol/ml) of the same substance?
A: 0.7735

Q: What about the “extent of growth: maximal OD630 over 48 hr divided by maximal OD of control” value ([8]; 25 μmol/ml) of the same substance?
A: 0.6853

Q: And the “extent of growth: maximal OD630 over 48 hr divided by maximal OD of control” value ([9]; 5 μmol/ml)?
A: 0.9134

Q: And the “extent of growth: maximal OD630 over 48 hr divided by maximal OD of control” value ([9]; 10 μmol/ml)?
A: 1.2332

Q: And the “extent of growth: maximal OD630 over 48 hr divided by maximal OD of control” value ([9]; 20 μmol/ml)?
A: 1.8922

Q: And the “extent of growth: maximal OD630 over 48 hr divided by maximal OD of control” value ([9]; 25 μmol/ml)?
A: 1.7501

Q: And the “extent of growth: maximal OD630 over 48 hr divided by maximal OD of control” value ([10]; 5 μmol/ml)?
A: 0.9473

Q: And the “extent of growth: maximal OD630 over 48 hr divided by maximal OD of control” value ([10]; 10 μmol/ml)?
A: 0.9083

Q: What about the “extent of growth: maximal OD630 over 48 hr divided by maximal OD of control” value ([10]; 20 μmol/ml) of the same substance?
A: 0.7929

Q: And the “extent of growth: maximal OD630 over 48 hr divided by maximal OD of control” value ([10]; 25 μmol/ml)?
A: 0.5618

Q: And the “extent of growth: maximal OD630 over 48 hr divided by maximal OD of control” value ([11]; 5 μmol/ml)?
A: 0.9729

Q: What about the “extent of growth: maximal OD630 over 48 hr divided by maximal OD of control” value ([11]; 10 μmol/ml) of the same substance?
A: 1.0153

Q: And the “extent of growth: maximal OD630 over 48 hr divided by maximal OD of control” value ([11]; 20 μmol/ml)?
A: 0.7572

Q: What about the “extent of growth: maximal OD630 over 48 hr divided by maximal OD of control” value ([11]; 25 μmol/ml) of the same substance?
A: 0.5262

Q: And the “extent of growth: maximal OD630 over 48 hr divided by maximal OD of control” value ([12]; 5 μmol/ml)?
A: 0.9059

Q: What about the “extent of growth: maximal OD630 over 48 hr divided by maximal OD of control” value ([12]; 10 μmol/ml) of the same substance?
A: 0.9070

Q: What about the “extent of growth: maximal OD630 over 48 hr divided by maximal OD of control” value ([12]; 20 μmol/ml) of the same substance?
A: 0.6852

Q: And the “extent of growth: maximal OD630 over 48 hr divided by maximal OD of control” value ([12]; 25 μmol/ml)?
A: 0.5011

Q: What about the “extent of growth: maximal OD630 over 48 hr divided by maximal OD of control” value ([13]; 5 μmol/ml) of the same substance?
A: 0.9294

Q: What about the “extent of growth: maximal OD630 over 48 hr divided by maximal OD of control” value ([13]; 10 μmol/ml) of the same substance?
A: 1.0301

Q: And the “extent of growth: maximal OD630 over 48 hr divided by maximal OD of control” value ([13]; 20 μmol/ml)?
A: 1.0167

Q: What about the “extent of growth: maximal OD630 over 48 hr divided by maximal OD of control” value ([13]; 25 μmol/ml) of the same substance?
A: 0.8547

Q: And the “extent of growth: maximal OD630 over 48 hr divided by maximal OD of control” value ([14]; 5 μmol/ml)?
A: 0.9244

Q: What about the “extent of growth: maximal OD630 over 48 hr divided by maximal OD of control” value ([14]; 10 μmol/ml) of the same substance?
A: 0.9743

Q: What about the “extent of growth: maximal OD630 over 48 hr divided by maximal OD of control” value ([14]; 20 μmol/ml) of the same substance?
A: 0.7533

Q: And the “extent of growth: maximal OD630 over 48 hr divided by maximal OD of control” value ([14]; 25 μmol/ml)?
A: 0.7018

Q: And the “extent of growth: maximal OD630 over 48 hr divided by maximal OD of control” value ([15]; 5 μmol/ml)?
A: 0.9980

Q: And the “extent of growth: maximal OD630 over 48 hr divided by maximal OD of control” value ([15]; 10 μmol/ml)?
A: 0.9808

Q: And the “extent of growth: maximal OD630 over 48 hr divided by maximal OD of control” value ([15]; 20 μmol/ml)?
A: 0.9516

Q: And the “extent of growth: maximal OD630 over 48 hr divided by maximal OD of control” value ([15]; 25 μmol/ml)?
A: 0.9671

Reference: patent US10159640B2, “Prebiotic oral care compositions containing amino acids” (COLGATE-PALMOLIVE COMPANY, priority 2013, dated 2018)
